Data published in doi:10.1101/2021.09.30.462449v1 (biorxiv, 2021).

Columns and labels:
Assay in all cases: biochemical
Conditions in all cases: read-out: % inhibition mean (Z'Lyte)
RET A883F = RET A883F (Homo sapiens, UniProt P07949, A883F)
MUSK = MUSK (Homo sapiens, UniProt O15146)
HIPK1 (Myak) = HIPK1 (Myak) (Homo sapiens, UniProt Q86Z02)
[1] = molecular target: CSNK1E (CK1 epsilon) R178C (Homo sapiens, UniProt P49674, R178C)
FLT3 = FLT3 (Homo sapiens, UniProt P36888)
CDC42 BPG (MRCKG) = CDC42 BPG (MRCKG) (Homo sapiens, UniProt Q6DT37)
MAP3K19 (YSK4) = MAP3K19 (YSK4) (Homo sapiens, UniProt Q56UN5)
MAPK1 (ERK2) = MAPK1 (ERK2) (Homo sapiens, UniProt P28482)
AURKB (Aurora B) = AURKB (Aurora B) (Homo sapiens, UniProt Q96GD4)
PRKCE (PKC epsilon) = PRKCE (PKC epsilon) (Homo sapiens, UniProt Q02156)
MAPK7 (ERK5) = MAPK7 (ERK5) (Homo sapiens, UniProt Q13164)
DYRK3 = DYRK3 (Homo sapiens, UniProt O43781)
SNF1LK2 = SNF1LK2 (Homo sapiens, UniProt Q9H0K1)
CDKL5 = CDKL5 (Homo sapiens, UniProt O76039)
MAP4K4 (HGK) = MAP4K4 (HGK) (Homo sapiens, UniProt O95819)
EPHB1 = EPHB1 (Homo sapiens, UniProt P54762)
AMPK (A1/B2/G2) = AMPK (A1/B2/G2) (Homo sapiens, UniProt Q13131)
CAMK1G (CAMKI gamma) = CAMK1G (CAMKI gamma) (Homo sapiens, UniProt Q96NX5)
FRK (PTK5) = FRK (PTK5) (Homo sapiens, UniProt P42685)
RET S891A = RET S891A (Homo sapiens, UniProt P07949, S891A)
BRSK1 (SAD1) = BRSK1 (SAD1) (Homo sapiens, UniProt Q8TDC3)
FGFR3 = FGFR3 (Homo sapiens, UniProt P22607)
MST1R (RON) = MST1R (RON) (Homo sapiens, UniProt Q04912)
MAPK9 (JNK2) = MAPK9 (JNK2) (Homo sapiens, UniProt P45984)
MAP3K9 (MLK1) = MAP3K9 (MLK1) (Homo sapiens, UniProt P80192)
PRKG2 (PKG2) = PRKG2 (PKG2) (Homo sapiens, UniProt Q13237)
EPHA8 = EPHA8 (Homo sapiens, UniProt P29322)
PRKCG (PKC gamma) = PRKCG (PKC gamma) (Homo sapiens, UniProt P05129)

Sequence of PRKCE (PKC epsilon) (Q02156 whole entry): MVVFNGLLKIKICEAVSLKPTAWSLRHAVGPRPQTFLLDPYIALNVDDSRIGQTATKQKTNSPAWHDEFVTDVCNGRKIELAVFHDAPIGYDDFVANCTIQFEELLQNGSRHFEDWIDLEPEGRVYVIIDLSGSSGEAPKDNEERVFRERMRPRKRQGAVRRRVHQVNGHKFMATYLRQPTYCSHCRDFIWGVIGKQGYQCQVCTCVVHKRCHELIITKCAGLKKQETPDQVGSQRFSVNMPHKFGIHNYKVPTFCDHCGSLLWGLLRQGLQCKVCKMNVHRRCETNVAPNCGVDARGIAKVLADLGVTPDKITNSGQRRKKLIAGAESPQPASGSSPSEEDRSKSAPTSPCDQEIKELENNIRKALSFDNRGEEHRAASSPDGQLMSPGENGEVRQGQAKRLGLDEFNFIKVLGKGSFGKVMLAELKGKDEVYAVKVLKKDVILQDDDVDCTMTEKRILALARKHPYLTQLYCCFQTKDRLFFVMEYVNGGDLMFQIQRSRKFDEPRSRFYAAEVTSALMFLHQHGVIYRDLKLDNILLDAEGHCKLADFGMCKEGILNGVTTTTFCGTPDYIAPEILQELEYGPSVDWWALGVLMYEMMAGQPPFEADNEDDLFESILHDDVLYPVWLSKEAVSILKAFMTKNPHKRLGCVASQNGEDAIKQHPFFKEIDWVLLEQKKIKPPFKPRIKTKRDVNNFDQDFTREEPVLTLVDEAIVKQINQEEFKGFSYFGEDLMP
Sequence of MST1R (RON) (Q04912 whole entry): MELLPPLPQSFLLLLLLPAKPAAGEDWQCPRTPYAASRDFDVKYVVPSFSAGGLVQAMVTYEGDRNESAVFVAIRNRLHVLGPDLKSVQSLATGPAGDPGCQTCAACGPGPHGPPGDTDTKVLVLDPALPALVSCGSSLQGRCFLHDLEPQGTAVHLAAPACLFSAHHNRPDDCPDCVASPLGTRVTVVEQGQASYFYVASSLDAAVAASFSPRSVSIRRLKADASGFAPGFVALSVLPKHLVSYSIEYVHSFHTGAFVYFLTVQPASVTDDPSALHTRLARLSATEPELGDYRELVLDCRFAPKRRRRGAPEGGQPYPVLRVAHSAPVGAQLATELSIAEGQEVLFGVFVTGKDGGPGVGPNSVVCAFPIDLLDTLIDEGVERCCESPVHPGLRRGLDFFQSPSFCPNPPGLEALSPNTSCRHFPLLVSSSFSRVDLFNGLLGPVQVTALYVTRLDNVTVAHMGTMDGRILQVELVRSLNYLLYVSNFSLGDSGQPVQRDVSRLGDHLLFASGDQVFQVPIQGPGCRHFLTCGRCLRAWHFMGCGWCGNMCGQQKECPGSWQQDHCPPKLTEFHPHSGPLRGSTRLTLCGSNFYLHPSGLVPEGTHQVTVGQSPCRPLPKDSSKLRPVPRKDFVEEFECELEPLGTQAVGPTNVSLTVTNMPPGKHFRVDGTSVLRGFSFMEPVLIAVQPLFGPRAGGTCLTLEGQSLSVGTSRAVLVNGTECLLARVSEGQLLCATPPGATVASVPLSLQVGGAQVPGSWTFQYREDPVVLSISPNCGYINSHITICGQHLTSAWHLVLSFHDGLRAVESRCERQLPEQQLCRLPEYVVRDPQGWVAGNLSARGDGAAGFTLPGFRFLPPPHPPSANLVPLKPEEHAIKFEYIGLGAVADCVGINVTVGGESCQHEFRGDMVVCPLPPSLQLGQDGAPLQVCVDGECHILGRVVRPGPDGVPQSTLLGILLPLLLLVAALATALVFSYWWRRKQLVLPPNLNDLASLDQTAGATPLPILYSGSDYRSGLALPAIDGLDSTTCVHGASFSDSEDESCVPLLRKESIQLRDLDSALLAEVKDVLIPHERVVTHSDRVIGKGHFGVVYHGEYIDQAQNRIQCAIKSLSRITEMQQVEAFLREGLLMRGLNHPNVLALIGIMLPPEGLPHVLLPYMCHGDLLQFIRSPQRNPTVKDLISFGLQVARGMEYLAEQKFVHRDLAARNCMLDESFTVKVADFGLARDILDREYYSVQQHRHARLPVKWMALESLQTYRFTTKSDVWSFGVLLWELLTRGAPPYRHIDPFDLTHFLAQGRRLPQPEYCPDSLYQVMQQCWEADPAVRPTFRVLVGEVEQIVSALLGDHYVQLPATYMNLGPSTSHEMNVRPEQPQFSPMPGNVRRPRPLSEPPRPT
Sequence of PRKG2 (PKG2) (Q13237 whole entry): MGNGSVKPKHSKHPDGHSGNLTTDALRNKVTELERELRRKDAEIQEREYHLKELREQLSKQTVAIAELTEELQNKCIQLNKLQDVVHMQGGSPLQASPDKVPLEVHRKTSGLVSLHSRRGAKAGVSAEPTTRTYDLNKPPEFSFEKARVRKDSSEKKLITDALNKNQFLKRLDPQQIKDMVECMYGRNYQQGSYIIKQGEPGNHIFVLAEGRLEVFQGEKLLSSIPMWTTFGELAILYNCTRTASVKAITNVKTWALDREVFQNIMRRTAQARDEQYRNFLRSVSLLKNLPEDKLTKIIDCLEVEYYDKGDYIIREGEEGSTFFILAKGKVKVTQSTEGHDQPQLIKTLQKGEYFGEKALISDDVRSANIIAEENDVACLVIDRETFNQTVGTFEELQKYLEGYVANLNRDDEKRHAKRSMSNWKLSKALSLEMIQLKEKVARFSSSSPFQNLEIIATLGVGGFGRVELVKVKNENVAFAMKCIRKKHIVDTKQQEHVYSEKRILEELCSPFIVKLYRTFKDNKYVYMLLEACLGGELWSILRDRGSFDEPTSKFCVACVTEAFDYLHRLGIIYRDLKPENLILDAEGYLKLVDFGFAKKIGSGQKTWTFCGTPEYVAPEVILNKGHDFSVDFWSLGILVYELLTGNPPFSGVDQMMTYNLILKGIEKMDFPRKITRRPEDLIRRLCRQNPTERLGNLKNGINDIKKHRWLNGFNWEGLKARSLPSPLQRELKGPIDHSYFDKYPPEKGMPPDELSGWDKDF
Sequence of SNF1LK2 (Q9H0K1 whole entry): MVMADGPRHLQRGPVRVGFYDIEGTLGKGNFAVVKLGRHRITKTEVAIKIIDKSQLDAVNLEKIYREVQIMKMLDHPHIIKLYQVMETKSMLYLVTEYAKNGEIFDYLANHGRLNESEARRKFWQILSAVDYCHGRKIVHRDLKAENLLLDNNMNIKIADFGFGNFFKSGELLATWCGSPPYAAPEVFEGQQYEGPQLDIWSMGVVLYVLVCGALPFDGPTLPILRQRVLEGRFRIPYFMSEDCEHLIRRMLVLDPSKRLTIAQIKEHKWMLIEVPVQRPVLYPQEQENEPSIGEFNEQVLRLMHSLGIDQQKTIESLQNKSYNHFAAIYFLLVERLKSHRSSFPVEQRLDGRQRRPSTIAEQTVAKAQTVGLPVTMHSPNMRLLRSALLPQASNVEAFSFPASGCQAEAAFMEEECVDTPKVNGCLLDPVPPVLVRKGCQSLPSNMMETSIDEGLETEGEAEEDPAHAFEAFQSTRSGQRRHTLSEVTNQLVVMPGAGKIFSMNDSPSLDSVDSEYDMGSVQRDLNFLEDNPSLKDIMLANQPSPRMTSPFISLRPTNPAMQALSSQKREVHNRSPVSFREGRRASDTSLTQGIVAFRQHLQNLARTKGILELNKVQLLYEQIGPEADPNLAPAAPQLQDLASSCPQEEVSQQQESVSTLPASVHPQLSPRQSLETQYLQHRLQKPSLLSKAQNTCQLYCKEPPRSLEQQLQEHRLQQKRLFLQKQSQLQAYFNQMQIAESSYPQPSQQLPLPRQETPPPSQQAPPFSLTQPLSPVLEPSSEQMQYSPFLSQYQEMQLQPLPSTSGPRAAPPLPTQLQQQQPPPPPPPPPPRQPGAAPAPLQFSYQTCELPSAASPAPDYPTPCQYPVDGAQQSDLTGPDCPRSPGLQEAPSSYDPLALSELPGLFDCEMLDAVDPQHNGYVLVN
Sequence of MAP4K4 (HGK) (O95819 whole entry): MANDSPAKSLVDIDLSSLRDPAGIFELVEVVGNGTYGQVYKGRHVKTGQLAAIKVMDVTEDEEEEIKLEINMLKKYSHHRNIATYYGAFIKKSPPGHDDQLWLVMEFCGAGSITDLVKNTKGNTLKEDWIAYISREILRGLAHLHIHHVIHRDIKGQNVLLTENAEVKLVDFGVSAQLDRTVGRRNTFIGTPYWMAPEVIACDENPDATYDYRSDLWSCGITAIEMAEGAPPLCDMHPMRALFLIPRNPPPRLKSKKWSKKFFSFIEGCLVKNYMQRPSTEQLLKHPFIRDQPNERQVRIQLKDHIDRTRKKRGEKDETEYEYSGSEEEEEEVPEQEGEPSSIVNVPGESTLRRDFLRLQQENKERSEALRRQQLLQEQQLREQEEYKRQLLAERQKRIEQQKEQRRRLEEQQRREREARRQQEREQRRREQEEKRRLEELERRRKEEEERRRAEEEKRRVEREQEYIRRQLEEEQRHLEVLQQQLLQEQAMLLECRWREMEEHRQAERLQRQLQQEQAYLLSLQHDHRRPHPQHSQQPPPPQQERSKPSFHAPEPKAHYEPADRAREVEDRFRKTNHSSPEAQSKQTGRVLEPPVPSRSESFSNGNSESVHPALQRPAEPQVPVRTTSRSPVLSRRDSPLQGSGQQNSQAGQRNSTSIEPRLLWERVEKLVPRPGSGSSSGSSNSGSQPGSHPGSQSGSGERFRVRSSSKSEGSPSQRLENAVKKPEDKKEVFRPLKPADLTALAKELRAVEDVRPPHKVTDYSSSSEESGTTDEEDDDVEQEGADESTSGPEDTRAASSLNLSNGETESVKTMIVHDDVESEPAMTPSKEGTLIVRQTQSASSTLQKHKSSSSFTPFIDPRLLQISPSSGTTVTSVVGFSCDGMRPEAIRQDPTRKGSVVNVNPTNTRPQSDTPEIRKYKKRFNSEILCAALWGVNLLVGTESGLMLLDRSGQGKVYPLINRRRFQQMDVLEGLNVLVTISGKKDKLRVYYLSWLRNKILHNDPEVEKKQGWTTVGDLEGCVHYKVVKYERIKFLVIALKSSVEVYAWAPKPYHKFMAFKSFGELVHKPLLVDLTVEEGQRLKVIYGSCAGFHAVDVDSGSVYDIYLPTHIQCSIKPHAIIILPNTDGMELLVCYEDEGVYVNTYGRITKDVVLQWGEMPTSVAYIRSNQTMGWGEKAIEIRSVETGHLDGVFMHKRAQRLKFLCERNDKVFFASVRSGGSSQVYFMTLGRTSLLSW

With `COc1ccc2nc3cc(Cl)ccc3c(Nc3cc(CN4CCCC4)c(O)c(CN4CCCC4)c3)c2n1` [Pyronaridine, 4-[(7-Chloro-2-methoxybenzo[b][1,5]naphthyridin-10-yl)amino]-2,6-bis(1-pyrrolidinylmethyl)phenol phosphate (1:4)] as the compound, how does the inhibition at 1 µM (RET A883F) read?
The inhibition at 1 µM was -1%.

And the inhibition at 1 µM (MUSK)?
The inhibition at 1 µM was -10%.

And the inhibition at 1 µM (HIPK1 (Myak))?
The inhibition at 1 µM was 1%.

And the inhibition at 1 µM [1]?
Its inhibition at 1 µM is 1%.

What about the inhibition at 1 µM (FLT3) of the same compound?
Its inhibition at 1 µM is 3%.

What about the inhibition at 1 µM (CDC42 BPG (MRCKG)) of the same compound?
The inhibition at 1 µM was 1%.

What about the inhibition at 1 µM (MAP3K19 (YSK4)) of the same compound?
The inhibition at 1 µM was 3%.

And the inhibition at 1 µM (MAPK1 (ERK2))?
The inhibition at 1 µM was -1%.

What about the inhibition at 1 µM (AURKB (Aurora B)) of the same compound?
Its inhibition at 1 µM is 5%.

And the inhibition at 1 µM (PRKCE (PKC epsilon))?
The inhibition at 1 µM was 6%.

And the inhibition at 1 µM (MAPK7 (ERK5))?
Its inhibition at 1 µM is 5%.

And the inhibition at 1 µM (DYRK3)?
The inhibition at 1 µM was 1%.

What about the inhibition at 1 µM (SNF1LK2) of the same compound?
Its inhibition at 1 µM is -5%.

What about the inhibition at 1 µM (CDKL5) of the same compound?
Its inhibition at 1 µM is 4%.

What about the inhibition at 1 µM (MAP4K4 (HGK)) of the same compound?
Its inhibition at 1 µM is 1%.

And the inhibition at 1 µM (EPHB1)?
Its inhibition at 1 µM is 2%.

And the inhibition at 1 µM (AMPK (A1/B2/G2))?
The inhibition at 1 µM was -2%.

And the inhibition at 1 µM (CAMK1G (CAMKI gamma))?
Its inhibition at 1 µM is 0%.

What about the inhibition at 1 µM (FRK (PTK5)) of the same compound?
Its inhibition at 1 µM is -2%.

What about the inhibition at 1 µM (RET S891A) of the same compound?
The inhibition at 1 µM was -3%.

And the inhibition at 1 µM (BRSK1 (SAD1))?
The inhibition at 1 µM was 2%.

And the inhibition at 1 µM (FGFR3)?
Its inhibition at 1 µM is -2%.

And the inhibition at 1 µM (MST1R (RON))?
The inhibition at 1 µM was 2%.

And the inhibition at 1 µM (MAPK9 (JNK2))?
The inhibition at 1 µM was -15%.

And the inhibition at 1 µM (MAP3K9 (MLK1))?
The inhibition at 1 µM was 17%.

And the inhibition at 1 µM (PRKG2 (PKG2))?
The inhibition at 1 µM was 1%.

And the inhibition at 1 µM (EPHA8)?
Its inhibition at 1 µM is 1%.

And the inhibition at 1 µM (PRKCG (PKC gamma))?
The inhibition at 1 µM was -4%.
